pIC50: −log10 of the molar value.

The experiment addresses AT2 Receptor (AT2R) (Homo sapiens (Human), UniProt P50052). The experiment in a line: Measurement of inhibitory activity on AT2 receptor (Tag-lite HTRF, Tb-labeled AT2R cells, angiotensin receptor red agonist). Particulars: 1 h room temperature. It counts as binding. How it is done: Measurement of Inhibitory Activity on AT1 Receptor ([…])/AT2 Receptor (AT2R)
Through the following steps, the inhibitory activity of the compound on AT1R/AT2R (IC50 value) was determined:
1) An appropriate amount of 1×TLB (Tag-lite Buffer) was prepared and well mixed for use.
2) The compound was diluted by 10 times with ddH2O or DMSO. The compound was then dilute to 4 times of the working concentration with 1×TLB and mixed well for use.
3) 8600 nM Tag-lite angiotensin receptor red agonist was diluted to 12 nM (4×Kd) with 1×TLB.
4) 5 ml 1×TLB was taken into a 15 ml centrifuge tube.
5) After thawing 1 tube of Tb-labeled AT1R/AT2R cells in a 37° C. water bath, the cells were quickly transferred to the 1×TLB in step 4), mixed gently, and centrifuged at 1200 g for 5 minutes at room temperature.
6) The supernatant was aspirated gently, and the cells were resuspended and mixed in 2.7 ml 1×TLB, and then placed at room temperature until use.
7) 10 μl cells were added to all test wells, and 5 μl 4× working solution of the compound from step 2) was added to the corresponding test wells. 5 μl 4× Tag-lite angiotensin receptor red agonist well diluted in step 3) was added to all test wells.
8) After leaving the reaction plate at room temperature for 1 h, data were measured and analyzed using Envision HTRF Reader, and the half inhibitory concentration (IC50) of the compound on AT1R/AT2R was calculated with the GraphPad Prism four-parameter equation.
(In general: Time-resolved FRET reads energy transfer from a long-lived donor to a nearby acceptor.)

AT2 Receptor (AT2R), sequence (P50052 whole entry): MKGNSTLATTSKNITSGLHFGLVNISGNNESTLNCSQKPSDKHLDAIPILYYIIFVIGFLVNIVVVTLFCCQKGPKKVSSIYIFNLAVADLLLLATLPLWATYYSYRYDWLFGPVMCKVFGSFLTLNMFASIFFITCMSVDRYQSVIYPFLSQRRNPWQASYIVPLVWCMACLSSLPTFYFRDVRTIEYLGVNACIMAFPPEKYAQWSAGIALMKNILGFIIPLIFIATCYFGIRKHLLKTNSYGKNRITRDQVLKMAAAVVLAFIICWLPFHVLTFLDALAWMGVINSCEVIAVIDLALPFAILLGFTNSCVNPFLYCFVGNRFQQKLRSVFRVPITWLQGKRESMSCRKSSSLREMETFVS

A word on the pIC50: it is the IC50 on a negative log10 scale, so that one unit is a factor of ten. For the compound `CN(Cc1ccccc1)C(=O)N1[C@H]2CC[C@@H]1[C@@H](C(=O)O)N(C(=O)N(c1ccc(F)cc1)c1ccc(F)cc1)C2` [Compound C129, (1R,2S,5S)-8-(benzyl(methyl)carbamoyl)-3-(bis(4-fluorophenyl)carbamoyl)-3,8-diazabicyclo [3.2.1]octane-2-carboxylic acid], the pIC50 was 6.83.

`O=C(O)[C@@H]1[C@H]2CC[C@@H](CN1C(=O)Oc1ccccc1)N2C(=O)N(c1ccccc1)c1ccccc1` [Compound C69, (1R,2S,5S)-8-(diphenylcarbamoyl)-3-(phenoxycarbonyl)-3,8-diazabicyclo [3.2.1]octane-2-carboxylic acid] gave a negative-log IC50 (pIC50) of 6.77.

In turn, `O=C(O)[C@@H]1[C@H]2CC[C@@H](CN1C(=O)C(c1ccccc1)c1ccccc1)N2C(=O)N1c2ccccc2C=Cc2ccccc21` [Compound C9, (1R,2S,5S)-8-(5H-dibenzo[b,f]azepine-5-carbonyl)-3-(2,2-diphenylacetyl)-3,8-diazabicyclo [3.2.1]octane-2-carboxylic acid] gave a pIC50 of 6.97.

`CCN(Cc1ccsc1)C(=O)N1[C@H]2CC[C@@H]1[C@@H](C(=O)O)N(C(=O)N(c1ccccc1)c1ccccc1)C2` [Compound C207, (1R,2S,5S)-3-(diphenylcarbamoyl)-8-(ethyl (thiophene-3-ylmethyl)carbamoyl)-3,8-diazabicyclo [3.2.1]octane-2-carboxylic acid] had a negative-log IC50 (pIC50) of 7.98.

`O=C(O)[C@@H]1[C@H]2CC[C@@H](CN1C(=O)N(c1ccccc1)c1ccccc1)N2C(=O)N(Cc1ccc(Cl)cc1)CC1CC1` [Compound C218, (1R,2S,5S)-8-((4-chlorobenzyl) (cyclopropylmethyl)carbamoyl)-3-(diphenylcarbamoyl)-3,8-diazabicyclo [3.2.1]octane-2-carboxylic acid] had a pIC50 of 7.94.

`CN(Cc1cc2ccccc2s1)C(=O)N1[C@H]2CC[C@@H]1[C@@H](C(=O)O)N(C(=O)N(c1ccccc1)c1ccccc1)C2` [Compound C271] had a pIC50 of 7.84.

As to `C[C@@H](c1ccccc1)N(C)C(=O)N1[C@H]2CC[C@@H]1[C@@H](C(=O)O)N(C(=O)N(c1ccccc1)c1ccccc1)C2` [Compound C227, (1R,2S,5S)-3-(diphenylcarbamoyl)-8-(methyl ((S)-1-phenylethyl)carbamoyl)-3,8-diazabicyclo [3.2.1]octane-2-carboxylic acid], the pIC50 was 7.74.

`O=C(O)[C@@H]1[C@H]2CC[C@@H](CN1C(=O)N(c1ccccc1)c1ccccc1)N2C(=O)N(Cc1ccccc1)CC(F)(F)F` [Compound C128, (1R,2S,5S)-8-(benzyl(2,2,2-trifluoroethyl)carbamoyl)-3-(diphenylcarbamoyl)-3,8-diazabicyclo [3.2.1]octane-2-carboxylic acid] gave a pIC50 of 7.67.

For `O=C(NC1CC2CCC1C(C(=O)O)N2C(=O)C(c1ccccc1)c1ccccc1)c1ccccc1` (stereo in doubt) [Compound C286, (1S,3S,4R)-5-benzamido-2-(2,2-diphenylacetyl)-2-azabicyclo[2.2.2]octane-3-carboxylic acid], the pIC50 was 6.12.

The compound `CCN(Cc1csc2ccccc12)C(=O)N1[C@H]2CC[C@@H]1[C@@H](C(=O)O)N(C(=O)N(c1ccccc1)c1ccccc1)C2` [Compound C245, (1R,2S,5S)-8-((benzo[b]thiophene-3-ylmethyl) (ethyl)carbamoyl)-3-(diphenylcarbamoyl)-3,8-diazabicyclo [3.2.1]octane-2-carboxylic acid] gave a pIC50 of 7.98.

As for `O=C(O)[C@@H]1[C@H]2CC[C@@H](CN1C(=O)C(c1ccccc1)c1ccccc1)N2C(=O)CCc1ccccc1` [Compound C222, (1R,2S,5S)-3-(2,2-diphenylacetyl)-8-(3-phenylpropionyl)-3,8-diazabicyclo [3.2.1]octane-2-carboxylic acid], the pIC50 is 7.93.

`O=C(O)[C@@H]1[C@H]2CC[C@@H](CN1C(=O)C(c1ccccc1)c1ccccc1)N2C(=O)C(c1ccccc1)c1ccccc1` [Compound C3, (1R,2S,5S)-3,8-bis (2,2-diphenylacetyl)-3,8-diazabicyclo [3.2.1]octane-2-carboxylic acid]: the negative logarithm of the IC50 (pIC50) is 7.86.

In turn, `CN(Cc1ccc2ncccc2c1)C(=O)N1[C@H]2CC[C@@H]1[C@@H](C(=O)O)N(C(=O)N(c1ccccc1)c1ccccc1)C2` [Compound C266, (1R,2S,5S)-3-(diphenylcarbamoyl)-8-(methyl (quinoline-6-ylmethyl)carbamoyl)-3,8-diazabicyclo [3.2.1]octane-2-carboxylic acid] had a negative-log IC50 (pIC50) of 8.79.

For `O=C(O)[C@@H]1[C@@H]2CC[C@@H](CC2OCc2ccccc2Cl)N1C(=O)C(c1ccccc1)c1ccccc1` (stereo partly drawn) [Compound C294, (1S,3S,4S)-5-((2-chloro-benzyl)oxy)-2-(2,2-diphenylacetyl)-2-azabicyclo [2.2.2]octane-3-carboxylic acid], the pIC50 is 6.18.

On to `O=C(O)[C@@H]1[C@H]2CC[C@@H](CN1C(=O)N(c1ccccc1)c1ccccc1)N2C(=O)N1CCCCC1c1ccccc1` (stereo partly drawn) [Compound C146, (1R,2S,5S)-3-(diphenylcarbamoyl)-8-(2-phenylpiperidine-1-carbonyl)-3,8-diazabicyclo [3.2.1]octane-2-carboxylic acid], for which the pIC50 is 7.85.

In turn, `Cc1cc(CN(C)C(=O)N2[C@H]3CC[C@@H]2[C@@H](C(=O)O)N(C(=O)C(c2ccccc2)c2ccccc2)C3)cs1` [Compound C277, (1R,2S,5S)-3-(2,2-diphenylacetyl)-8-(methyl((5-methylthiophen-3-yl)methyl)carbamoyl)-3,8-diazabicyclo [3.2.1]octane-2-carboxylic acid] gave a negative-log IC50 (pIC50) of 7.98.

With `CN(C)S(=O)(=O)NC(=O)[C@@H]1[C@H]2CC[C@@H](CN1C(=O)C(c1ccccc1)c1ccccc1)N2C(=O)OCc1ccccc1` [Compound C233], the pIC50 is 6.99.

Consider `CN(Cc1ccccn1)C(=O)N1[C@H]2CC[C@@H]1[C@@H](C(=O)O)N(C(=O)N(c1ccccc1)c1ccccc1)C2` [Compound C126, (1R,2S,5S)-3-(diphenylcarbamoyl)-8-(methyl(pyridine-2-ylmethyl)carbamoyl)-3,8-diazabicyclo [3.2.1]octane-2-carboxylic acid], for which the negative-log IC50 (pIC50) is 7.11.

On to `O=C(O)[C@@H]1[C@H]2CC[C@@H](CN1C(=O)N(c1ccccc1)c1ccccc1)N2C(=O)N(c1ccc(F)cc1)c1ccc(F)cc1` [Compound C145, (1R,2S,5S)-8-(bis(4-fluorophenyl)carbamoyl)-3-(diphenylcarbamoyl)-3,8-diazabicyclo [3.2.1]octane-2-carboxylic acid], for which the pIC50 was 6.96.

Compound `CCN(Cc1cccs1)C(=O)N1[C@H]2CC[C@@H]1[C@@H](C(=O)O)N(C(=O)N(c1ccccc1)c1ccccc1)C2` [Compound C201, (1R,2S,5S)-3-(diphenylcarbamoyl)-8-(ethyl(thiophene-2-ylmethyl)carbamoyl)-3,8-diazabicyclo [3.2.1]octane-2-carboxylic acid] gave a pIC50 of 7.73.

The compound `O=C(O)[C@@H]1[C@H]2CC[C@@H](CN1C(=O)N(c1ccccc1)c1ccccc1)N2C(=O)N1CCC[C@@H]1c1ccccc1` [Compound C140, (1R,2S,5S)-3-(diphenylcarbamoyl)-8-((R)-2-phenylpyrrolidine-1-carbonyl)-3,8-diazabicyclo [3.2.1]octane-2-carboxylic acid] had a pIC50 of 8.26.

The compound `CN(Cc1ccc(C(F)(F)F)cc1)C(=O)N1[C@H]2CC[C@@H]1[C@@H](C(=O)O)N(C(=O)N(c1ccccc1)c1ccccc1)C2` [Compound C169] gave a negative-log IC50 (pIC50) of 8.14.

Consider `O=C(O)[C@@H]1[C@H]2CC[C@@H](CN1C(=O)N(c1ccccc1)c1ccccc1)N2C(=O)N(Cc1ccsc1)C1CC1` [Compound C196, (1R,2S,5S)-8-(cyclopropyl (thiophene-3-yl-methyl)carbamoyl)-3-(diphenylcarbamoyl)-3,8-diazabicyclo [3.2.1]octane-2-carboxylic acid], for which the pIC50 is 8.79.

`O=C(O)[C@@H]1[C@H]2CC[C@@H](CN1C(=O)N(c1ccccc1)c1ccccc1)N2C(=O)N1CCC[C@@H]1c1cc(F)ccc1F` [Compound C141, (1R,2S,5S)-8-((R)-2-(2,5-difluorophenyl)pyrrolidine-1-carbonyl)-3-(diphenylcarbamoyl)-3,8-diazabicyclo [3.2.1]octane-2-carboxylic acid] gave a pIC50 of 8.10.

For the compound `O=C(O)[C@@H]1[C@H]2CC[C@@H](CN1C(=O)N(c1ccccc1)c1ccccc1)N2C(=O)N1CCCC1c1ccc(Cl)cc1` (stereo in doubt) [Compound C144, (1R,2S,5S)-8-((R)-2-(4-chlorphenyl)pyrrolidine-1-carbonyl)-3-(diphenylcarbamoyl)-3,8-diazabicyclo [3.2.1]octane-2-carboxylic acid], the negative-log IC50 (pIC50) is 7.67.

In turn, `O=C(O)[C@@H]1[C@H]2CC[C@@H](CN1C(=O)N(c1ccccc1)c1ccccc1)N2C(=O)N1CCN(c2ccccc2)CC1` [Compound C132, (1R,2S,5S)-3-(diphenylcarbamoyl)-8-(4-phenylpiperazine-1-carbonyl)-3,8-diazabicyclo[3.2.1] octane-2-carboxylic acid] gave a negative-log IC50 (pIC50) of 6.32.

Regarding `O=C(O)[C@@H]1[C@H]2CC[C@@H](CN1C(=O)N(c1ccccc1)c1ccccc1)N2C(=O)N(Cc1ccccc1)Cc1ccccc1` [Compound C133, (1R,2S,5S)-8-(dibenzylcarbamoyl)-3-(diphenylcarbamoyl)-3,8-diazabicyclo[3.2.1] octane-2-carboxylic acid], the pIC50 is 6.61.

The values are drawn from patent publication US11453690B2, “Receptor inhibitor, pharmaceutical composition comprising same, and use thereof” (BEIJING TIDE PHARMACEUTICAL CO., LTD., priority 2018, dated 2022).
